Laboratory results published in the supplement of paper PMC10307832.

Legend:
Test in all cases: relative viability (nuclei count vs DMSO), 5 days (fraction); higher = more cells survive
[1] = compound: CC1=C(C(=NN1)C)CC2=C(C3=C(S2)N(C(=O)N(C3=O)C)CC(C)C)C(=O)N4C[C@@H](CO4)O + C[C@]1(O)C[C@@H](c2nc(-c3ccc4ccc(-c5ccccc5)nc4c3)c3c(N)nccn32)C1 [Linsitinib] (partner 1 µM)
Outline: (§1)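 Relative viability equals treated-well nuclei counts divided by vehicle-well nuclei counts. Counts came from 4× images of lung cancer cell lines grown in 1536-well plates for 5 days after pin-tool dosing on the day after seeding. Dosing used one drug alone or a fixed anchor-drug dose plus five library-drug doses (not always all listed) in √10 steps, and values are medians of duplicate plates.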

[2] = compound: CC1=C(C(=NN1)C)CC2=C(C3=C(S2)N(C(=O)N(C3=O)C)CC(C)C)C(=O)N4C[C@@H](CO4)O + CC1(C)CCC(c2ccc(Cl)cc2)=C(CN2CCN(c3ccc(C(=O)NS(=O)(=O)c4ccc(N[C@H](CCN5CCOCC5)CSc5ccccc5)c(S(=O)(=O)C(F)(F)F)c4)cc3)CC2)C1 [Navitoclax] (partner 0.5 µM)
Outline: as §1

[3] = compound: CC1=C(C(=NN1)C)CC2=C(C3=C(S2)N(C(=O)N(C3=O)C)CC(C)C)C(=O)N4C[C@@H](CO4)O + CC(=O)Nc1cccc(-n2c(=O)n(C3CC3)c(=O)c3c(Nc4ccc(I)cc4F)n(C)c(=O)c(C)c32)c1 [Trametinib] (partner 0.02 µM)
Outline: as §1

[4] = compound: CC1=C(C(=NN1)C)CC2=C(C3=C(S2)N(C(=O)N(C3=O)C)CC(C)C)C(=O)N4C[C@@H](CO4)O + CC(=O)c1c(C)c2cnc(Nc3ccc(N4CCNCC4)cn3)nc2n(C2CCCC2)c1=O [Palbociclib] (partner 0.5 µM)
Outline: as §1

Cell Line: NCI-H2023
- relative viability ([1]; first compound 0.0025 µM): 0.648
- relative viability ([1]; first compound 0.007906 µM): 0.786
- relative viability ([1]; first compound 0.025 µM): 0.696
- relative viability ([1]; first compound 0.07906 µM): 0.777
- relative viability ([1]; first compound 0.25 µM): 0.683
- relative viability ([2]; first compound 0.0025 µM): 0.981
- relative viability ([2]; first compound 0.007906 µM): 0.946
- relative viability ([2]; first compound 0.025 µM): 0.957
- relative viability ([2]; first compound 0.07906 µM): 0.979
- relative viability ([2]; first compound 0.25 µM): 0.986
- relative viability ([3]; first compound 0.0025 µM): 0.667
- relative viability ([3]; first compound 0.007906 µM): 0.613
- relative viability ([3]; first compound 0.025 µM): 0.562
- relative viability ([3]; first compound 0.07906 µM): 0.599
- relative viability ([3]; first compound 0.25 µM): 0.575
- relative viability ([4]; first compound 0.0025 µM): 0.305
- relative viability ([4]; first compound 0.007906 µM): 0.375
- relative viability ([4]; first compound 0.025 µM): 0.296
- relative viability ([4]; first compound 0.07906 µM): 0.402
- relative viability ([4]; first compound 0.25 µM): 0.491

Cell Line: NCI-H2085
- relative viability ([1]; first compound 0.0025 µM): 0.953
- relative viability ([1]; first compound 0.007906 µM): 0.956
- relative viability ([1]; first compound 0.025 µM): 0.814
- relative viability ([1]; first compound 0.07906 µM): 0.844
- relative viability ([1]; first compound 0.25 µM): 0.77
- relative viability ([2]; first compound 0.0025 µM): 1.22
- relative viability ([2]; first compound 0.007906 µM): 1.12
- relative viability ([2]; first compound 0.025 µM): 1.06
- relative viability ([2]; first compound 0.07906 µM): 1.12
- relative viability ([2]; first compound 0.25 µM): 1.22
- relative viability ([3]; first compound 0.0025 µM): 0.844
- relative viability ([3]; first compound 0.007906 µM): 0.586
- relative viability ([3]; first compound 0.025 µM): 0.575
- relative viability ([3]; first compound 0.07906 µM): 0.608
- relative viability ([3]; first compound 0.25 µM): 0.549
- relative viability ([4]; first compound 0.0025 µM): 0.495
- relative viability ([4]; first compound 0.007906 µM): 0.439
- relative viability ([4]; first compound 0.025 µM): 0.431
- relative viability ([4]; first compound 0.07906 µM): 0.451
- relative viability ([4]; first compound 0.25 µM): 0.492

Cell Line: NCI-H2087
- relative viability ([1]; first compound 0.0025 µM): 0.962
- relative viability ([1]; first compound 0.007906 µM): 1.08
- relative viability ([1]; first compound 0.025 µM): 1.02
- relative viability ([1]; first compound 0.07906 µM): 1.02
- relative viability ([1]; first compound 0.25 µM): 0.928
- relative viability ([2]; first compound 0.0025 µM): 1.05
- relative viability ([2]; first compound 0.007906 µM): 0.979
- relative viability ([2]; first compound 0.025 µM): 0.953
- relative viability ([2]; first compound 0.07906 µM): 1.1
- relative viability ([2]; first compound 0.25 µM): 1.16
- relative viability ([3]; first compound 0.0025 µM): 0.248
- relative viability ([3]; first compound 0.007906 µM): 0.202
- relative viability ([3]; first compound 0.025 µM): 0.213
- relative viability ([3]; first compound 0.07906 µM): 0.201
- relative viability ([3]; first compound 0.25 µM): 0.208
- relative viability ([4]; first compound 0.0025 µM): 0.244
- relative viability ([4]; first compound 0.007906 µM): 0.264
- relative viability ([4]; first compound 0.025 µM): 0.193
- relative viability ([4]; first compound 0.07906 µM): 0.16
- relative viability ([4]; first compound 0.25 µM): 0.223

Cell Line: NCI-H2126
- relative viability ([1]; first compound 0.0025 µM): 0.712
- relative viability ([1]; first compound 0.007906 µM): 0.789
- relative viability ([1]; first compound 0.025 µM): 0.673
- relative viability ([1]; first compound 0.07906 µM): 0.72
- relative viability ([1]; first compound 0.25 µM): 0.67
- relative viability ([2]; first compound 0.0025 µM): 0.852
- relative viability ([2]; first compound 0.007906 µM): 0.877
- relative viability ([2]; first compound 0.025 µM): 0.882
- relative viability ([2]; first compound 0.07906 µM): 0.829
- relative viability ([2]; first compound 0.25 µM): 0.826
- relative viability ([3]; first compound 0.0025 µM): 0.527
- relative viability ([3]; first compound 0.007906 µM): 0.57
- relative viability ([3]; first compound 0.025 µM): 0.548
- relative viability ([3]; first compound 0.07906 µM): 0.551
- relative viability ([3]; first compound 0.25 µM): 0.577
- relative viability ([4]; first compound 0.0025 µM): 0.356
- relative viability ([4]; first compound 0.007906 µM): 0.335
- relative viability ([4]; first compound 0.025 µM): 0.368
- relative viability ([4]; first compound 0.07906 µM): 0.327
- relative viability ([4]; first compound 0.25 µM): 0.369

Cell Line: NCI-H2228
- relative viability ([1]; first compound 0.0025 µM): 0.912
- relative viability ([1]; first compound 0.007906 µM): 1.07
- relative viability ([1]; first compound 0.025 µM): 0.672
- relative viability ([1]; first compound 0.07906 µM): 0.764
- relative viability ([1]; first compound 0.25 µM): 0.674
- relative viability ([2]; first compound 0.0025 µM): 0.955
- relative viability ([2]; first compound 0.007906 µM): 0.961
- relative viability ([2]; first compound 0.025 µM): 1.15
- relative viability ([2]; first compound 0.07906 µM): 1
- relative viability ([2]; first compound 0.25 µM): 1.14
- relative viability ([3]; first compound 0.0025 µM): 0.788
- relative viability ([3]; first compound 0.007906 µM): 0.584
- relative viability ([3]; first compound 0.025 µM): 0.578
- relative viability ([3]; first compound 0.07906 µM): 0.662
- relative viability ([3]; first compound 0.25 µM): 0.577
- relative viability ([4]; first compound 0.0025 µM): 0.794
- relative viability ([4]; first compound 0.007906 µM): 0.768
- relative viability ([4]; first compound 0.025 µM): 0.779
- relative viability ([4]; first compound 0.07906 µM): 0.793
- relative viability ([4]; first compound 0.25 µM): 0.933

Cell Line: NCI-H2347
- relative viability ([1]; first compound 0.0025 µM): 0.992
- relative viability ([1]; first compound 0.007906 µM): 0.944
- relative viability ([1]; first compound 0.025 µM): 0.956
- relative viability ([1]; first compound 0.07906 µM): 0.894
- relative viability ([1]; first compound 0.25 µM): 1.03
- relative viability ([2]; first compound 0.0025 µM): 0.86
- relative viability ([2]; first compound 0.007906 µM): 0.691
- relative viability ([2]; first compound 0.025 µM): 0.828
- relative viability ([2]; first compound 0.07906 µM): 0.69
- relative viability ([2]; first compound 0.25 µM): 0.771
- relative viability ([3]; first compound 0.0025 µM): 0.269
- relative viability ([3]; first compound 0.007906 µM): 0.313
- relative viability ([3]; first compound 0.025 µM): 0.301
- relative viability ([3]; first compound 0.07906 µM): 0.274
- relative viability ([3]; first compound 0.25 µM): 0.265
- relative viability ([4]; first compound 0.0025 µM): 0.426
- relative viability ([4]; first compound 0.007906 µM): 0.4
- relative viability ([4]; first compound 0.025 µM): 0.431
- relative viability ([4]; first compound 0.07906 µM): 0.36
- relative viability ([4]; first compound 0.25 µM): 0.445

Cell Line: NCI-H2405
- relative viability ([1]; first compound 0.0025 µM): 0.972
- relative viability ([1]; first compound 0.007906 µM): 0.902
- relative viability ([1]; first compound 0.07906 µM): 0.881
- relative viability ([1]; first compound 0.25 µM): 0.73
- relative viability ([2]; first compound 0.0025 µM): 0.795
- relative viability ([2]; first compound 0.007906 µM): 0.652
- relative viability ([2]; first compound 0.07906 µM): 0.983
- relative viability ([2]; first compound 0.25 µM): 0.864
- relative viability ([3]; first compound 0.0025 µM): 0.689
- relative viability ([3]; first compound 0.007906 µM): 0.627
- relative viability ([3]; first compound 0.025 µM): 0.618
- relative viability ([3]; first compound 0.07906 µM): 0.673
- relative viability ([3]; first compound 0.25 µM): 0.692
- relative viability ([4]; first compound 0.0025 µM): 0.529
- relative viability ([4]; first compound 0.007906 µM): 0.531
- relative viability ([4]; first compound 0.025 µM): 0.54
- relative viability ([4]; first compound 0.07906 µM): 0.473
- relative viability ([4]; first compound 0.25 µM): 0.563

Cell Line: NCI-H3122
- relative viability ([1]; first compound 0.0025 µM): 1.04
- relative viability ([1]; first compound 0.007906 µM): 1.08
- relative viability ([1]; first compound 0.025 µM): 0.99
- relative viability ([1]; first compound 0.07906 µM): 0.976
- relative viability ([1]; first compound 0.25 µM): 0.947
- relative viability ([2]; first compound 0.0025 µM): 1.02
- relative viability ([2]; first compound 0.007906 µM): 1.04
- relative viability ([2]; first compound 0.025 µM): 0.996
- relative viability ([2]; first compound 0.07906 µM): 1.01
- relative viability ([2]; first compound 0.25 µM): 0.995
- relative viability ([3]; first compound 0.0025 µM): 0.226
- relative viability ([3]; first compound 0.007906 µM): 0.305
- relative viability ([3]; first compound 0.025 µM): 0.254
- relative viability ([3]; first compound 0.07906 µM): 0.187
- relative viability ([3]; first compound 0.25 µM): 0.229
- relative viability ([4]; first compound 0.0025 µM): 0.165
- relative viability ([4]; first compound 0.007906 µM): 0.241
- relative viability ([4]; first compound 0.025 µM): 0.205
- relative viability ([4]; first compound 0.07906 µM): 0.176
- relative viability ([4]; first compound 0.25 µM): 0.209
